These compounds were tested against T1, human PTH1 receptor (Homo sapiens, UniProt Q03431) (assay: In vitro cAMP signal activity in HKRK-B7 cells (LLC-PK1 cells overexpressing the human PTH1 receptor)). Settings: HKRK-B7 cells; compound at 1×10^−3 M; cAMP produced as percentage of that produced by hPTH(1-34) at 100 nM.
T1 sequence (Q03431 27-593): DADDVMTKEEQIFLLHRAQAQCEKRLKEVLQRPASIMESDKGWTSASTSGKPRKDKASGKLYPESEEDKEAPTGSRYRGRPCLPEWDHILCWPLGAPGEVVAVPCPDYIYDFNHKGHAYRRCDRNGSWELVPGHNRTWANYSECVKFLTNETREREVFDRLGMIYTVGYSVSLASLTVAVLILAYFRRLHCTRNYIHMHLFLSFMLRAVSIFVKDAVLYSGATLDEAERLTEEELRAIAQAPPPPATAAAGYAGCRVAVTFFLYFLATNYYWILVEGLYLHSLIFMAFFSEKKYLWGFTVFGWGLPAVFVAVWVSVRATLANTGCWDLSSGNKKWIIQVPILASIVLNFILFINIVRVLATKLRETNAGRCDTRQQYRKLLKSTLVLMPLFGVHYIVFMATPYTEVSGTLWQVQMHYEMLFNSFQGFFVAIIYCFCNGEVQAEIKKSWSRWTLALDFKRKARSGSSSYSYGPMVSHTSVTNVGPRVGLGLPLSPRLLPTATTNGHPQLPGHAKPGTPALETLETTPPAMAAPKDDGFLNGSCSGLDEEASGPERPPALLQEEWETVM
Assay type: cell-based
With `Cc1cc(N(C2CCOCC2)S(C)(=O)=O)cc(C)c1/C=C/S(=O)(=O)N1CCC2(CC1)N=C(c1cccc(OC(F)(F)F)c1)NC2=O` [Compound 534, N-(3,5-dimethyl-4-{(E)-2-[4-oxo-2-(3-trifluoromethoxy-phenyl)-1,3,8-triaza-spiro[4.5]dec-1-ene-8-sulfonyl]-vinyl}-phenyl)-N-(tetrahydro-pyran-4-yl)-methane sulfonamide] the “cAMP production activity (%)” value was 39%.
In the case of `Cc1cc(C(=O)N2CCC(O)CC2)cc(C)c1/C=C/S(=O)(=O)N1CCC2(CC1)N=C(c1ccc(F)c(C(F)(F)F)c1)NC2=O` [Compound 535, 2-(4-fluoro-3-trifluoromethyl-phenyl)-8-{(E)-2-[4-(4-hydroxy-piperidine-1-carbonyl)-2,6-dimethyl-phenyl]-ethenesulfonyl}-1,3,8-triaza-spiro[4.5]dec-1-en-4-one], the “cAMP production activity (%)” value is reported as 83%.
In the case of `CCCCCCCCCC1=NC2(CCN(S(=O)(=O)/C=C/c3ccc(N4C(=O)CNC4=O)cc3C)CC2)C(=O)N1` [Compound 536, 3-{3-Methyl-4-[(E)-2-(2-nonyl-4-oxo-1,3,8-triaza-spiro[4.5]dec-1-ene-8-sulfonyl)-vinyl]-phenyl}-imidazolidine-2,4-dione], the “cAMP production activity (%)” value is reported as 72%.
With `CCCCCCCCCC1=NC2(CCN(S(=O)(=O)/C=C/c3ccc(N4C(=O)CNC4=O)cc3C(F)(F)F)CC2)C(=O)N1` [Compound 537, 3-{4-[(E)-2-(2-nonyl-4-oxo-1,3,8-triaza-spiro[4.5]dec-1-ene-8-sulfonyl)-vinyl]-3-trifluoromethyl-phenyl}-imidazolidine-2,4-dione] the “cAMP production activity (%)” value was 3.9%.
For `CCCCCCCCCC1=NC2(CCN(S(=O)(=O)/C=C/c3ccc(N4C(=O)COCC4=O)cc3C)CC2)C(=O)N1` [Compound 538, 4-{3-methyl-4-[(E)-2-(2-nonyl-4-oxo-1,3,8-triaza-spiro[4.5]dec-1-ene-8-sulfonyl)-vinyl]-phenyl}-morpholine-3,5-dione], the “cAMP production activity (%)” value was 133%.
In the case of `CCCCCCCCCC1=NC2(CCN(S(=O)(=O)/C=C/c3c(C)cc(N4C(=O)CNC4=O)cc3C)CC2)C(=O)N1` [Compound 539, 3-{3,5-dimethyl-4-[(E)-2-(2-nonyl-4-oxo-1,3,8-triaza-spiro[4.5]dec-1-ene-8-sulfonyl)-vinyl]-phenyl}-imidazolidine-2,4-dione], the “cAMP production activity (%)” value is reported as 80%.
In the case of `Cc1cc(N2C(=O)NC(C)(C)C2=O)ccc1/C=C/S(=O)(=O)N1CCC2(CC1)N=C(C1CCC(CCC(F)(F)F)CC1)NC2=O` (stereo not drawn) [Compound 540, 5,5-Dimethyl-3-[3-methyl-4-((E)-2-{4-oxo-2-[4-(3,3,3-trifluoro-propyl)-cyclohexyl]-1,3,8-triaza-spiro[4.5]dec-1-ene-8-sulfonyl}-vinyl)-phenyl]-imidazolidine-2,4-dione], the “cAMP production activity (%)” value is reported as 22%.
With `O=C1NC(C2CCC(CCC(F)(F)F)CC2)=NC12CCN(S(=O)(=O)/C=C/c1cccc3c1ccn3C[C@@H](O)CO)CC2` (stereo partly drawn) [Compound 541, 8-{(E)-2-[1-((R)-2,3-dihydroxy-propyl)-1H-indol-4-yl]-ethenesulfonyl}-2-[4-(3,3,3-trifluoro-propyl)-cyclohexyl]-1,3,8-triaza-spiro[4.5]dec-1-en-4-one] the “cAMP production activity (%)” value was 79%.
In the case of `COCCN(C(C)=O)c1ccc(/C=C/S(=O)(=O)N2CCC3(CC2)N=C(C2CCC(CCC(F)(F)F)CC2)NC3=O)c(C)c1` (stereo not drawn) [Compound 542, N-(2-methoxy-ethyl)-N-[3-methyl-4-((E)-2-{4-oxo-2-[4-(3,3,3-trifluoro-propyl)-cyclohexyl]-1,3,8-triaza-spiro[4.5]dec-1-ene-8-sulfonyl}-vinyl)-phenyl]-acetamide], the “cAMP production activity (%)” value is reported as 66%.
For `COCCN(C(C)=O)c1cc(C)c(/C=C/S(=O)(=O)N2CCC3(CC2)N=C(C2CCC(CCC(F)(F)F)CC2)NC3=O)c(C)c1` (stereo not drawn) [Compound 543, N-[3,5-dimethyl-4-((E)-2-{4-oxo-2-[4-(3,3,3-trifluoro-propyl)-cyclohexyl]-1,3,8-triaza-spiro[4.5]dec-1-ene-8-sulfonyl}-vinyl)-phenyl]-N-(2-methoxy-ethyl)-acetamide], the “cAMP production activity (%)” value was 76%.
For `CC(=O)N(CCOCCO)c1ccc(/C=C/S(=O)(=O)N2CCC3(CC2)N=C(C2CCC(CCC(F)(F)F)CC2)NC3=O)c(C)c1` (stereo not drawn) [Compound 544, N-[2-(2-hydroxy-ethoxy)-ethyl]-N-[3-methyl-4-((E)-2-{4-oxo-2-[4-(3,3,3-trifluoro-propyl)-cyclohexyl]-1,3,8-triaza-spiro[4.5]dec-1-ene-8-sulfonyl}-vinyl)-phenyl]-acetamide], the “cAMP production activity (%)” value was 80%.
`CC(=O)N(CCOCCF)c1ccc(/C=C/S(=O)(=O)N2CCC3(CC2)N=C(C2CCC(CCC(F)(F)F)CC2)NC3=O)c(C)c1` (stereo not drawn) [Compound 545, N-[2-(2-fluoro-ethoxy)-ethyl]-N-[3-methyl-4-((E)-2-{4-oxo-2-[4-(3,3,3-trifluoro-propyl)-cyclohexyl]-1,3,8-triaza-spiro[4.5]dec-1-ene-8-sulfonyl}-vinyl)-phenyl]-acetamide] was tested, and the “cAMP production activity (%)” value was 86%.
With `CC(=O)N(C)c1cc(C)c(/C=C/S(=O)(=O)N2CCC3(CC2)N=C(C2CCC(CCC(F)(F)F)CC2)NC3=O)c(C)c1` (stereo not drawn) [Compound 546, N-[3,5-dimethyl-4-((E)-2-{4-oxo-2-[4-(3,3,3-trifluoro-propyl)-cyclohexyl]-1,3,8-triaza-spiro[4.5]dec-1-ene-8-sulfonyl}-vinyl)-phenyl]-N-methyl-acetamide] the “cAMP production activity (%)” value was 75%.
For `Cc1cc(C(=O)O)cc(C)c1/C=C/S(=O)(=O)N1CCC2(CC1)N=C(C1CCC(CCC(F)(F)F)CC1)NC2=O` (stereo not drawn) [Compound 547, 3,5-dimethyl-4-((E)-2-{4-oxo-2-[4-(3,3,3-trifluoro-propyl)-cyclohexyl]-1,3,8-triaza-spiro[4.5]dec-1-ene-8-sulfonyl}-vinyl)-benzoic acid], the “cAMP production activity (%)” value was 52%.
In the case of `Cc1cc(N2C(=O)CN(C)C2=O)cc(C)c1/C=C/S(=O)(=O)N1CCC2(CC1)N=C(C1CCC(CCC(F)(F)F)CC1)NC2=O` (stereo not drawn) [Compound 548, 3-[3,5-dimethyl-4-((E)-2-{4-oxo-2-[4-(3,3,3-trifluoro-propyl)-cyclohexyl]-1,3,8-triaza-spiro[4.5]dec-1-ene-8-sulfonyl}-vinyl)-phenyl]-1-methyl-imidazolidine-2,4-dione], the “cAMP production activity (%)” value is reported as 88%.
`Cc1cc(C(=O)N2CCN(CCF)CC2)cc(C)c1/C=C/S(=O)(=O)N1CCC2(CC1)N=C(C1CCC(CCC(F)(F)F)CC1)NC2=O` (stereo not drawn) [Compound 549, 8-((E)-2-{4-[4-(2-fluoro-ethyl)-piperazine-1-carbonyl]-2,6-dimethyl-phenyl}-ethenesulfonyl)-2-[4-(3,3,3-trifluoro-propyl)-cyclohexyl]-1,3,8-triaza-spiro[4.5]dec-1-en-4-one] was tested, and the “cAMP production activity (%)” value was 86%.
`Cc1cc(N2CCOCC2=O)cc(C)c1/C=C/S(=O)(=O)N1CCC2(CC1)N=C(C1CCC(CCC(F)(F)F)CC1)NC2=O` (stereo not drawn) [Compound 550, 8-{(E)-2-[2,6-dimethyl-4-(3-oxo-morpholin-4-yl)-phenyl]-ethenesulfonyl}-2-[4-(3,3,3-trifluoro-propyl)-cyclohexyl]-1,3,8-triaza-spiro[4.5]dec-1-en-4-one] was tested, and the “cAMP production activity (%)” value was 124%.
With `CC(=O)N(CCOCCF)c1cc(C)c(/C=C/S(=O)(=O)N2CCC3(CC2)N=C(C2CCC(CCC(F)(F)F)CC2)NC3=O)c(C)c1` (stereo not drawn) [Compound 551, N-[3,5-dimethyl-4-((E)-2-{4-oxo-2-[4-(3,3,3-trifluoro-propyl)-cyclohexyl]-1,3,8-triaza-spiro[4.5]dec-1-ene-8-sulfonyl}-vinyl)-phenyl]-N-[2-(2-fluoro-ethoxy)-ethyl]-acetamide] the “cAMP production activity (%)” value was 92%.
